Experimental findings from ChEMBL document CHEMBL2321747, “A nonionic inhibitor with high specificity for the UDP-Gal donor binding site of human blood group B galactosyltransferase: design, synthesis, and characterization” (J Med Chem, 2013) are described below.

Calls of active or inactive are those of the source. The rule behind the calls is not given here.

The nature of experiment [1]: (§1) Competitive inhibition of human blood group A N-acetylgalactosaminyltransferase using UDP-GalNac as substrate in presence of magnesium ions.
Experiment [2] concerns the target T1, Histo-blood group ABO system transferase (Homo sapiens, UniProt P16442).
T1 sequence (P16442 whole entry): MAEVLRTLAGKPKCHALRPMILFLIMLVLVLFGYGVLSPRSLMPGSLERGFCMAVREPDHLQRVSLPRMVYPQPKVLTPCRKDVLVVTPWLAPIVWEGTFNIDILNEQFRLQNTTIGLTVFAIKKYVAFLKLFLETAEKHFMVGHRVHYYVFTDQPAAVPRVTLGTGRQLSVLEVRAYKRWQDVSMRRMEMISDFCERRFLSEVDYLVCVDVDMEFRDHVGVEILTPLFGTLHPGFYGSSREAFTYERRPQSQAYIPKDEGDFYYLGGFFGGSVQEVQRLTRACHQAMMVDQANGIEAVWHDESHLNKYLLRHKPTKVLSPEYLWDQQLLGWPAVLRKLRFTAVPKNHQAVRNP
As to the kind of experiment: Inhibition of human blood group B Galactosyltransferase using radiolabeled UDP-Gal as substrate in presence of manganese ions.

Experiment [3] concerns the target T1, Histo-blood group ABO system transferase. Kind of experiment: Inhibition of human blood group B Galactosyltransferase using UDP-Gal as substrate by STD NMR analysis in presence of magnesium ions.
For experiment [4] the target is unchanged. Kind of experiment: Binding affinity to human blood group B Galactosyltransferase after 300 secs by SPR analysis.
Experiment [5] addresses T2, Beta-1,4-galactosyltransferase 1 (Bos taurus) (UniProt P08037).
T2 sequence (whole entry): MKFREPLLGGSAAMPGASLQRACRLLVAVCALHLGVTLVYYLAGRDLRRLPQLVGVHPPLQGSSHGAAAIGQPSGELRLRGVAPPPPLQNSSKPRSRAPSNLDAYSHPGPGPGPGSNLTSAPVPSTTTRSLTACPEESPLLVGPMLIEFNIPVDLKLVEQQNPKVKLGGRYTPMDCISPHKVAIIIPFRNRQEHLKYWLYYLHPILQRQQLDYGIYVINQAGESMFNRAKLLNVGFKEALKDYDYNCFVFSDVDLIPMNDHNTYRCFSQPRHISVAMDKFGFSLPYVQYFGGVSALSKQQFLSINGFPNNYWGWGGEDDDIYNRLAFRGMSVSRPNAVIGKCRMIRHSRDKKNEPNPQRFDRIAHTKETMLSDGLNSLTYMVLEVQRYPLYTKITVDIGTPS
Kind of experiment: Binding affinity to bovine beta-1,4-galactosyltransferase 1 using UDP-Gal as substrate at 1.5 mM after 15 hrs by NMR spectroscopic analysis in presence of magnesium ions.

Experiment [6] is filed under the species Homo sapiens. The experiment is described as §1.
For experiment [7], the target named is T1, Histo-blood group ABO system transferase. Kind of experiment: Competitive inhibition of human blood group B Galactosyltransferase using UDP-Gal as substrate by Michaelis-Menten equation analysis in presence of magnesium ions.
Experiment [8] has the same target. As to the kind of experiment: Binding affinity to human blood group B Galactosyltransferase by STD NMR analysis in presence of magnesium ions.

With `O=c1[nH]c(=O)c2[nH]c(=O)n(C[C@@H](O)[C@H](O)[C@H](O)CO)c2[nH]1`, the Ki in experiment [1] was determined as 1100 µM; in experiment [2], 2200 µM; in experiment [3], 571 µM. The compound also had an equilibrium dissociation constant (Kd) in experiment [4] of 2300 µM.
`O=c1[nH]c(=O)c2[nH]c(=O)n(C[C@@H](O)[C@H](O)[C@H](O)CO[C@H]3O[C@H](CO)[C@H](O)[C@H](O)[C@H]3O)c2[nH]1`: in experiment [5], the inhibition result is “Active”. For the same compound, the inhibition entry in experiment [6] is “inactive”. Further, the Ki in experiment [7] stood at 565 µM; in experiment [2], 1500 µM; in experiment [3], 117 µM. In addition, the half-maximal inhibitory concentration (IC50) in experiment [2] was 1600 µM; in experiment [3], 389 µM. For the same compound, the dissociation constant Kd was found to be 254 µM in experiment [4] and 182 µM in experiment [8].
For `O=c1[nH]c(=O)c2[nH]c(=O)n(C[C@H](O)[C@H](O)[C@H](O)CO)c2[nH]1`, the Ki in experiment [1] amounted to 712 µM; in experiment [2], 1500 µM; in experiment [3], 361 µM.
